# Assay results reported in US12077503B2, “Substituted cyclic amides and their use as herbicides” (FMC CORPORATION, priority 2015, dated 2024).
# Experiments:
# Assay type in all cases: in vivo
# [1] = system: ivy-leaved morning glory (Ipomoea hederacea); experiment: Test G Pre-Emergence Protocol; settings: Ipomoea, pre-emergence, 312 h, evaluated after 13 days
# Outline: (§1)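 One day after sowing, pots are treated with a spray of test compound formulated in acetone/water 50:50 plus 0.5% Tween 20, giving 15.625, 62.5 or 250 g/ha. Evaluation on a 0–100 damage scale follows 13 days of glasshouse growth.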
# [2] = system: barnyardgrass (Echinochloa crus-galli); experiment: Test G Pre-Emergence Protocol; settings: Echinochloa crus-galli, pre-emergence, 312 h, evaluated after 13 days
# Outline: as §1
# [3] = system: redroot pigweed (Amaranthus retroflexus); experiment: Test G Pre-Emergence Protocol; settings: Amaranthus retroflexus, pre-emergence, 312 h, evaluated after 13 days
# Outline: as §1
# [4] = system: corn (Zea mays); experiment: Test G Pre-Emergence Protocol; settings: Zea mays, pre-emergence, 312 h, evaluated after 13 days
# Outline: as §1
# [5] = system: velvetleaf (Abutilon theophrasti); experiment: Test G Pre-Emergence Protocol; settings: Abutilon theophrasti, pre-emergence, 312 h, evaluated after 13 days
# Outline: as §1
# [6] = system: giant foxtail (Setaria faberi); experiment: Test G Pre-Emergence Protocol; settings: Setaria faberi, pre-emergence, 312 h, evaluated after 13 days
# Outline: as §1
# [7] = system: ivy-leaved morning glory (Ipomoea hederacea); experiment: Test G Post-Emergence Protocol; settings: Ipomoea, post-emergence, 312 h, read-out: Morningglory, Ivy-leaved damage rating
# Outline: (§2)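 Values are percent visual injury at 13 days after treatment (0 none, 100 total). Treatment was a post-emergence spray at 15.625, 62.5 or 250 g/ha on 8-day-old pot plants kept at 24/16 °C.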
# [8] = system: barnyardgrass (Echinochloa crus-galli); experiment: Test G Post-Emergence Protocol; settings: Echinochloa crus-galli, post-emergence, 312 h, read-out: Barnyardgrass damage rating
# Outline: as §2
# [9] = system: redroot pigweed (Amaranthus retroflexus); experiment: Test G Post-Emergence Protocol; settings: Amaranthus retroflexus, post-emergence, 312 h, read-out: Pigweed, Redroot damage rating
# Outline: as §2
# [10] = system: corn (Zea mays); experiment: Test G Post-Emergence Protocol; settings: Zea mays, post-emergence, 312 h, read-out: Corn damage rating
# Outline: as §2
# [11] = system: velvetleaf (Abutilon theophrasti); experiment: Test G Post-Emergence Protocol; settings: Abutilon theophrasti, post-emergence, 312 h, read-out: Velvetleaf damage rating
# Outline: as §2
# [12] = system: giant foxtail (Setaria faberi); experiment: Test G Post-Emergence Protocol; settings: Setaria faberi, post-emergence, 312 h, read-out: Foxtail, Giant damage rating
# Outline: as §2
# [13] = 15.625 g ai/ha, evaluated after 13 days (100=total damage to plant; 0=no damage to plant)
# [14] = 62.5 g ai/ha, evaluated after 13 days, 100=total damage to plant, 0=no damage to plant
# [15] = 250 g ai/ha, evaluated after 13 days, 100=total damage to plant, 0=no damage to plant
smiles,measurement,setting,value
CN1C[C@H](c2ccc(Cl)cc2)[C@@H](C(=O)Nc2ccc(F)nc2F)C1=O [Compound 1811],pest or weed control at 15.625 g/ha,"[1]; 15.625 g ai/ha, read-out: Morningglory, Ivy-leaved damage rating (100=total damage to plant; 0=no damage to plant)",0%
same,pest or weed control at 62.5 g/ha,"[1]; 62.5 g ai/ha, 100=total damage to plant, 0=no damage to plant, read-out: Morningglory, Ivy-leaved damage rating",20%
same,pest or weed control at 250 g/ha,"[1]; 250 g ai/ha, read-out: Morningglory, Ivy-leaved damage rating (100=total damage to plant; 0=no damage to plant)",80%
same,pest or weed control at 15.625 g/ha,"[2]; 15.625 g ai/ha, read-out: Barnyardgrass damage rating (100=total damage to plant; 0=no damage to plant)",80%
same,pest or weed control at 62.5 g/ha,"[2]; 62.5 g ai/ha, 100=total damage to plant, 0=no damage to plant, read-out: Barnyardgrass damage rating",90%
same,pest or weed control at 250 g/ha,"[2]; 250 g ai/ha, read-out: Barnyardgrass damage rating (100=total damage to plant; 0=no damage to plant)",90%
same,pest or weed control at 15.625 g/ha,"[3]; 15.625 g ai/ha, read-out: Pigweed, Redroot damage rating (100=total damage to plant; 0=no damage to plant)",30%
same,pest or weed control at 62.5 g/ha,"[3]; 62.5 g ai/ha, 100=total damage to plant, 0=no damage to plant, read-out: Pigweed, Redroot damage rating",70%
same,pest or weed control at 250 g/ha,"[3]; 250 g ai/ha, read-out: Pigweed, Redroot damage rating (100=total damage to plant; 0=no damage to plant)",80%
same,plant injury at 15.625 g/ha,"[4]; 15.625 g ai/ha, read-out: Corn damage rating (100=total damage to plant; 0=no damage to plant)",0%
same,plant injury at 62.5 g/ha,"[4]; 62.5 g ai/ha, 100=total damage to plant, 0=no damage to plant, read-out: Corn damage rating",70%
same,plant injury at 250 g/ha,"[4]; 250 g ai/ha, read-out: Corn damage rating (100=total damage to plant; 0=no damage to plant)",80%
same,pest or weed control at 15.625 g/ha,"[5]; 15.625 g ai/ha, read-out: Velvetleaf damage rating (100=total damage to plant; 0=no damage to plant)",10%
same,pest or weed control at 62.5 g/ha,"[5]; 62.5 g ai/ha, 100=total damage to plant, 0=no damage to plant, read-out: Velvetleaf damage rating",50%
same,pest or weed control at 250 g/ha,"[5]; 250 g ai/ha, read-out: Velvetleaf damage rating (100=total damage to plant; 0=no damage to plant)",70%
same,pest or weed control at 15.625 g/ha,"[6]; 15.625 g ai/ha, read-out: Foxtail, Giant damage rating (100=total damage to plant; 0=no damage to plant)",90%
same,pest or weed control at 62.5 g/ha,"[6]; 62.5 g ai/ha, 100=total damage to plant, 0=no damage to plant, read-out: Foxtail, Giant damage rating",90%
same,pest or weed control at 250 g/ha,"[6]; 250 g ai/ha, read-out: Foxtail, Giant damage rating (100=total damage to plant; 0=no damage to plant)",90%
same,pest or weed control at 15.625 g/ha,[7]; [13],40%
same,pest or weed control at 62.5 g/ha,[7]; [14],20%
same,pest or weed control at 250 g/ha,[7]; [15],70%
same,pest or weed control at 15.625 g/ha,[8]; [13],80%
same,pest or weed control at 62.5 g/ha,[8]; [14],80%
same,pest or weed control at 250 g/ha,[8]; [15],80%
same,pest or weed control at 15.625 g/ha,[9]; [13],20%
same,pest or weed control at 62.5 g/ha,[9]; [14],60%
same,pest or weed control at 250 g/ha,[9]; [15],80%
same,plant injury at 15.625 g/ha,[10]; [13],40%
same,plant injury at 62.5 g/ha,[10]; [14],60%
same,plant injury at 250 g/ha,[10]; [15],80%
same,pest or weed control at 15.625 g/ha,[11]; [13],10%
same,pest or weed control at 62.5 g/ha,[11]; [14],30%
same,pest or weed control at 250 g/ha,[11]; [15],50%
same,pest or weed control at 15.625 g/ha,[12]; [13],80%
same,pest or weed control at 62.5 g/ha,[12]; [14],80%
same,pest or weed control at 250 g/ha,[12]; [15],80%
